# Test results reported in article PMC10247784, “Physiological activation of human and mouse bitter taste receptors by bile acids” (Communications Biology, 2023).
# Several values for one entry are separate records, joined by “and”; a condition that tells them apart may be missing. Equal entries are not always repeated.
# Assays:
# Assay type in all cases: cell-based
# human TAS2R46 = biological target: T1, human TAS2R46 (Homo sapiens, UniProt P59540); test: Calcium imaging assay (FLIPR), HEK293T-Gα16gust44 cells transfected with human TAS2R46
# T1 construct: expressed in transfected cells; host or cells: HEK293T-Gα16gust44
# T1 sequence (P59540 1-309): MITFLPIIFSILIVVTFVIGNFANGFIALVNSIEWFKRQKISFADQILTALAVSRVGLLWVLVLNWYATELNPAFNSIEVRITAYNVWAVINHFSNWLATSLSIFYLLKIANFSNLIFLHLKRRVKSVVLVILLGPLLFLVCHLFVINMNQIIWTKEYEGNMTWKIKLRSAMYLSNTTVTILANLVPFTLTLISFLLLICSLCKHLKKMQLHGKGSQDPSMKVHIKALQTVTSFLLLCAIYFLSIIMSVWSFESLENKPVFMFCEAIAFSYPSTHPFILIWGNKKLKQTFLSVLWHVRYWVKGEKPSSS
# Procedure, shortened: (§1)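 Calcium responses via FLIPR in receptor-transfected HEK293T-Gα16gust44 cells (Fluo-4-AM, 2.5 mM probenecid), after mock-signal subtraction and normalization to baseline and buffer (ΔF/F). Threshold concentration is the lowest dose differing from mock cells at p < 0.01 (Student's t-test), from three biological replicates in duplicate.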
# [1] = test system: HEK293T-Gα16gust44 cells transfected with empty vector (mock); test: Calcium imaging assay (FLIPR), empty vector control (mock)
# Procedure, shortened: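 Read-out is Fluo-4 fluorescence change (ΔF/F) after automated application of bile acids (DMSO stocks) to transiently transfected cells. Values are corrected for empty-vector cells and normalized to buffer. Dose-response from three independent experiments in duplicate; threshold concentration set at p < 0.01 versus mock.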
# human TAS2R39 = biological target: T2, human TAS2R39 (Homo sapiens, UniProt P59534); test: Calcium imaging assay (FLIPR), HEK293T-Gα16gust44 cells transfected with human TAS2R39
# T2 construct: expressed in transfected cells; host or cells: HEK293T-Gα16gust44
# T2 sequence (P59534 1-338): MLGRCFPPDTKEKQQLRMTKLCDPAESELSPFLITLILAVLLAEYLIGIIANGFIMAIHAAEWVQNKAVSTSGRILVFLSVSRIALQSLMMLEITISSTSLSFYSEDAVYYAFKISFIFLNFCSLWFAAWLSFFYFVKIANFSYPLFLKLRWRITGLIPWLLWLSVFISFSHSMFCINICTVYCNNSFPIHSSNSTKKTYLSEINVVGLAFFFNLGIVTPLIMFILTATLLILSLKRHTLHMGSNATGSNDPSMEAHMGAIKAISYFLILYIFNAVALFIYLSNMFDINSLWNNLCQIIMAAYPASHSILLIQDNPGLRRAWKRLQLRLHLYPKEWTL
# Procedure, shortened: as §1
# [2] = lowest concentration with significantly increased fluorescence vs empty vector (p < 0.01)
smiles,measurement,setting,value
"C[C@H](CCC(=O)NCCS(=O)(=O)O)[C@H]1CC[C@H]2[C@@H]3[C@H](O)C[C@@H]4C[C@H](O)CC[C@]4(C)[C@H]3C[C@H](O)[C@]12C [Taurocholic Acid, taurocholic acid]",Efficacy = maximal amplitude (ΔF/F),"human TAS2R46; TAS2R46, bile acids, mean",0.03422
same,"Efficacy (maximal amplitude ΔF/F), individual data points","human TAS2R46; TAS2R46, bile acids, single replicates, listed as TCA",0.02095 and 0.04014 and 0.04158
same,Δ F/F,"human TAS2R46; TAS2R46, conc. 0,01 mM",0.006451
same,Δ F/F,"human TAS2R46; TAS2R46, conc. 0,1 mM",0.007108
same,Δ F/F,"human TAS2R46; TAS2R46, conc. 0,03 mM",0.004646
same,Δ F/F,"human TAS2R46; TAS2R46, conc. 0,3 mM",0.00491
same,Δ F/F,"human TAS2R46; TAS2R46, conc. 0,001 mM",0.003048
same,Δ F/F,"human TAS2R46; TAS2R46, conc. 1 mM",0.03422
same,Δ F/F,"human TAS2R46; TAS2R46, conc. 0,003 mM",0.00216
same,Activation threshold concentration TAS2R46,human TAS2R46; [2],1000 µM
same,Δ F/F,"[1]; Conc. 0,01 mM, Mock (sheet TAS2R39)",-0.01563
same,Δ F/F,"[1]; Conc. 0,1 mM, Mock (sheet TAS2R39)",-0.02822
same,Δ F/F,"[1]; Conc. 0,03 mM, Mock (sheet TAS2R39)",-0.0235
same,Δ F/F,"[1]; Conc. 0,3 mM, Mock (sheet TAS2R39)",-0.04268
same,Δ F/F,"[1]; Conc. 0,001 mM, Mock (sheet TAS2R39)",-0.0133
same,Δ F/F,"[1]; Conc. 1 mM, Mock (sheet TAS2R39)",-0.07998
same,Δ F/F,"[1]; Conc. 0,003 mM, Mock (sheet TAS2R39)",-0.01654
same,Δ F/F,"[1]; Mock (sheet Tas2r123), conc. 0,01 mM",-0.001211
same,Δ F/F,"[1]; Mock (sheet Tas2r123), conc. 0,1 mM",-8.418e-5
same,Δ F/F,"[1]; Mock (sheet Tas2r123), conc. 0,03 mM",-0.0003225
same,Δ F/F,"[1]; Mock (sheet Tas2r123), conc. 0,3 mM",-0.001149
same,Δ F/F,"[1]; Mock (sheet Tas2r123), conc. 0,001 mM",-0.001993
same,Δ F/F,"[1]; Mock (sheet Tas2r123), conc. 0,003 mM",-0.001321
same,Δ F/F,"[1]; Mock (sheet Tas2r144), conc. 0,01 mM",0.001108
same,Δ F/F,"[1]; Mock (sheet Tas2r144), conc. 0,1 mM",0.003486
same,Δ F/F,"[1]; Mock (sheet Tas2r144), conc. 0,03 mM",0.0001367
same,Δ F/F,"[1]; Mock (sheet Tas2r144), conc. 0,3 mM",-0.000351
same,Δ F/F,"[1]; Mock (sheet Tas2r144), conc. 0,003 mM",-0.001298
same,Δ F/F,"[1]; Mock, sheet TAS2R4, conc. 0,01 mM",-0.0002235
same,Δ F/F,"[1]; Mock, sheet TAS2R4, conc. 0,1 mM",-0.0008729
same,Δ F/F,"[1]; Mock, sheet TAS2R4, conc. 0,03 mM",6.044e-5
same,Δ F/F,"[1]; Mock, sheet TAS2R4, conc. 0,3 mM",0.0004439
same,Δ F/F,"[1]; Mock, sheet TAS2R4, conc. 0,001 mM",-0.0007938
same,Δ F/F,"[1]; Mock, sheet TAS2R4, conc. 0,003 mM",-0.0007144
same,Δ F/F,"[1]; Mock, sheet TAS2R14, conc. 0,01 mM",-0.01747
same,Δ F/F,"[1]; Mock, sheet TAS2R14, conc. 0,1 mM",-0.02159
same,Δ F/F,"[1]; Mock, sheet TAS2R14, conc. 0,03 mM",-0.01682
same,Δ F/F,"[1]; Mock, sheet TAS2R14, conc. 0,3 mM",-0.04976
same,Δ F/F,"[1]; Mock, sheet TAS2R14, conc. 0,001 mM",-0.01145
same,Δ F/F,"[1]; Mock, sheet TAS2R14, conc. 1 mM",-0.08511
same,Δ F/F,"[1]; Mock, sheet TAS2R14, conc. 0,003 mM",-0.01455
same,Δ F/F,"[1]; Mock, sheet TAS2R46, conc. 0,01 mM",-0.0238
same,Δ F/F,"[1]; Mock, sheet TAS2R46, conc. 0,1 mM",-0.03213
same,Δ F/F,"[1]; Mock, sheet TAS2R46, conc. 0,03 mM",-0.02754
same,Δ F/F,"[1]; Mock, sheet TAS2R46, conc. 0,3 mM",-0.04297
same,Δ F/F,"[1]; Mock, sheet TAS2R46, conc. 0,001 mM",-0.01362
same,Δ F/F,"[1]; Mock, sheet TAS2R46, conc. 1 mM",-0.07821
same,Δ F/F,"[1]; Mock, sheet TAS2R46, conc. 0,003 mM",-0.02261
same,Δ F/F,"[1]; Mock, sheet Tas2r108, conc. 0,01 mM",-0.02048
same,Δ F/F,"[1]; Mock, sheet Tas2r108, conc. 0,1 mM",-0.02439
same,Δ F/F,"[1]; Mock, sheet Tas2r108, conc. 0,03 mM",-0.01669
same,Δ F/F,"[1]; Mock, sheet Tas2r108, conc. 0,3 mM",-0.04405
same,Δ F/F,"[1]; Mock, sheet Tas2r108, conc. 0,001 mM",-0.01481
same,Δ F/F,"[1]; Mock, sheet Tas2r108, conc. 1 mM",-0.07176
same,Δ F/F,"[1]; Mock, sheet Tas2r108, conc. 0,003 mM",-0.01975
same,Δ F/F,"[1]; Mock, sheet Tas2r117, conc. 0,01 mM",0.0004005
same,Δ F/F,"[1]; Mock, sheet Tas2r117, conc. 0,1 mM",0.0008049
same,Δ F/F,"[1]; Mock, sheet Tas2r117, conc. 0,03 mM",0.000104
same,Δ F/F,"[1]; Mock, sheet Tas2r117, conc. 0,3 mM",-0.0008737
same,Δ F/F,"[1]; Mock, sheet Tas2r117, conc. 0,0003 mM",-0.0001935
same,Δ F/F,"[1]; Mock, sheet Tas2r117, conc. 0,001 mM",-0.001035
same,Δ F/F,"[1]; Mock, sheet Tas2r117, conc. 0,003 mM",-0.0005321
same,Δ F/F,"[1]; conc. 0,01 mM, Mock (sheet TAS2R1)",-0.002439
same,Δ F/F,"[1]; conc. 0,1 mM, Mock (sheet TAS2R1)",-0.002601
same,Δ F/F,"[1]; conc. 0,03 mM, Mock (sheet TAS2R1)",-0.002464
same,Δ F/F,"[1]; conc. 0,3 mM, Mock (sheet TAS2R1)",-0.001298
same,Δ F/F,"[1]; conc. 0,001 mM, Mock (sheet TAS2R1)",-0.001546
same,Δ F/F,"[1]; conc. 0,003 mM, Mock (sheet TAS2R1)",-0.002596
same,Δ F/F,"human TAS2R39; Conc. 0,01 mM, TAS2R39",0.002616
same,Δ F/F,"human TAS2R39; Conc. 0,1 mM, TAS2R39",0.007681
same,Δ F/F,"human TAS2R39; Conc. 0,03 mM, TAS2R39",0.00381
same,Δ F/F,"human TAS2R39; Conc. 0,3 mM, TAS2R39",0.02945
same,Δ F/F,"human TAS2R39; Conc. 0,001 mM, TAS2R39",-0.001111
same,Δ F/F,"human TAS2R39; Conc. 1 mM, TAS2R39",0.155
same,Δ F/F,"human TAS2R39; Conc. 0,003 mM, TAS2R39",0.0008114
same,Efficacy = maximal amplitude (ΔF/F),"human TAS2R39; TAS2R39, bile acids, mean",0.155
same,"Efficacy (maximal amplitude ΔF/F), individual data points","human TAS2R39; TAS2R39, bile acids, single replicates, listed as TCA",0.1385 and 0.1739 and 0.1528
same,Activation threshold concentration TAS2R39,human TAS2R39; [2],300 µM
